Experimental data: patent publication US12691114B2, “Compositions for inhibition of herpesviruses” (The Medical College of Wisconsin, Inc., priority 2020, dated 2026)

Assays:
[1] = system: HSV1 clinical isolate; test: Plaque reduction assay, HSV1 in Vero cells; assay type: cell-based, Human Herpesvirus 1; conditions: Human alphaherpesvirus 1, Vero, read-out: EC50—HSV1-C1 (μM)
From the text: (§1) Viruses and antiviral assays: A recombinant pp28-luciferase Towne HCMV strain expressing luciferase under the control of the UL99 (pp28) late promoter was reported to provide a highly-sensitive and reproducible reporter for drug screening^20. A GCV-resistant HCMV pp28-luciferase that contains a C607Y mutation in UL97 was reported^37. The HCMV TB40 strain was obtained from ATCC (VR-1578). Clinical isolates of Human Herpesvirus 1 and 2 (HSV1, HSV2) were collected from the Johns Hopkins Microbiology laboratory without identifiers that could link them to a specific patient. Mouse CMV (MCMV) Smith strain (ATCC VR-1399) was used for infection of MEFs.
(§2) Plaque reduction assay: HFFs were seeded into 12-well plates (2×10^5 cells/well) and infected with HCMV TB40 at approximately 100 plaques/well. After 90 min, media were aspirated, and DMEM containing 0.5% carboxymethyl-cellulose (CMC), 4% fetal bovine serum (FBS), and drugs were added into duplicate wells. Following incubation at 37° C. for 10-12 days the overlay was removed, and plaques were counted after crystal violet staining. For HSV1 and HSV2 replication in Vero cells, the adsorption time was 60 min and plaques were counted after 36 h. Plaque assays in MEFs were completed after 3 days.
(§3) Inhibition of other herpesviruses: Inhibition of herpes simplex 1 and 2 (HSV1, HSV2), Epstein Barr virus (EBV) and mouse CMV (MCMV) was tested with the five compounds. Plaque reductions assays were used for HSV1, HSV2 and MCMV. Inhibition of lytic EBV replication was measured by real-time PCR in AKATA cells following IgG induction. Only MLS8554 was active against HSV1, HSV2 and MCMV (Table 2).

[2] = system: HCMV; test: Drug combination of GCV and 2955 by plaque assay, Bliss model; assay type: cell-based, human cytomegalovirus; conditions: Human betaherpesvirus 5; combination experiment with NCGC2955, plaque assay; read-out: EC50 of Compound 1 (GCV)
Experimental: Drug combination and analysis: These experiments were performed as previously reported^40. The combination of GCV and each compound was tested using the pp28-luciferase. Briefly, 2×10^6 HFFs/plate were seeded in 96-well plates and infected with the pp28-luciferase Towne HCMV strain (MOI=1). First, a dose response curve was generated for each drug individually to determine its EC50. Then, drugs were combined at twice their EC50, diluted in DMEM with 4% FBS, followed by serial dilution and added together after infection. Luciferase activity of the combination and each drug individually was quantified at 72 hpi. The combination of letermovir and each of the new compounds was tested by the plaque assay using TB40. The same principle applied in this assay for the drug combination effect, and plaques were counted at 8 dpi. The Bliss model was used to calculate the effect of each drug combination on pp28-luciferase activity and plaque reduction. […]
(§4) Pattern of drug combination with GCV and letermovir: The effect of each compound alone or in combination with GCV or letermovir was tested in HCMV-infected HFFs. […] For letermovir and its combination with each of the five compounds the EC50 was determined based on plaque assay. […] All other combinations and Bliss coefficients were measured by pp28- luciferase.

[3] = system: Epstein Barr Virus (EBV); test: Inhibition of lytic EBV replication in Akata cells, real-time PCR of BALF5; assay type: cell-based; conditions: human gammaherpesvirus 4, IgG induction, real-time PCR at 48 hours, NA = Not active
Experimental: Inhibition of lytic Epstein Barr Virus (EBV) replication: Akata cells (0.5×10^6/well of 24-well plate) latently infected with EBV were induced with 100 μg/ml of goat antihuman IgG (Sigma). Compounds and GCV control were added to triplicate wells immediately after the addition of human IgG. Cells were collected 48 hours after lytic induction for DNA quantification. Cellular DNA was purified using Wizard SV Genomic Kit (Promega, Madison, WI). The effect of the compounds on lytic induction of EBV was analyzed by real-time PCR of the EBV DNA polymerase gene, BALF5^38.
as §3

[4] = system: Mouse CMV (MCMV) Smith strain; test: Plaque assay, mouse CMV in MEFs; assay type: cell-based, mouse cytomegalovirus; conditions: Murid betaherpesvirus 1; plaque reduction, MEFs; NA = Not active
From the text: as §1, §2, §3

[5] = system: HSV2 clinical isolate; test: Plaque reduction assay, HSV2 in Vero cells; assay type: cell-based, Human Herpesvirus 2; conditions: Human alphaherpesvirus 2, Vero, read-out: EC50—HSV2-C1 (μM)
From the text: as §1, §2, §3

[6] = system: pp28-luciferase Towne HCMV; test: Drug combination with GCV, pp28-luciferase Towne, Bliss model; assay type: cell-based, human cytomegalovirus; conditions: Human betaherpesvirus 5, read-out: EC50 of Compound 1 (GCV), pp28-luciferase Towne, MOI=1, 72 hpi; one value per combination experiment
Experimental: (§5) Drug combination and analysis: These experiments were performed as previously reported^40. The combination of GCV and each compound was tested using the pp28-luciferase. Briefly, 2×10^6 HFFs/plate were seeded in 96-well plates and infected with the pp28-luciferase Towne HCMV strain (MOI=1). First, a dose response curve was generated for each drug individually to determine its EC50. Then, drugs were combined at twice their EC50, diluted in DMEM with 4% FBS, followed by serial dilution and added together after infection. Luciferase activity of the combination and each drug individually was quantified at 72 hpi. The combination of letermovir and each of the new compounds was tested by the plaque assay using TB40. The same principle applied in this assay for the drug combination effect, and plaques were counted at 8 dpi. The Bliss model was used to calculate the effect of each drug combination on pp28-luciferase activity and plaque reduction. In this model, drug combination represents the product of two probabilistically independent events as described in the following equation^41.
(§6) [formula] Where D is the drug concentration, m is the slope, and EC50 is the effective concentration resulting in 50% virus inhibition. The combined effect of two inhibitors (Fu, fractional unaffected) is computed as the product of individual effects of the two inhibitors, Fu1 and Fu2. If the ratio of observed fold inhibition divided by the expected fold inhibition is greater than 1, the compounds are synergistic. If the ratio is less than 1, the combination is considered antagonistic, and if it equals to 1 the combination is additive.
as §4

[7] = in vitro; conditions: human
Experimental: Cytotoxicity assay: MTT assay was performed as described by manufacturer's instructions (Sigma-Aldrich). Non-infected cells were treated with compounds for 72 h or 10 days (same time points of the antiviral assay), and 20 μL/well of MTT [3-(4, 5-Dimethyl-2-thiazolyl)-2, 5-diphenyl-2H-tetrazolium bromide], 5 mg/mL in phosphate buffered saline (PBS)] was added to each well. After shaking at 150 rpm for 5 min the plates were incubated at 37° C. for 2-3 h. Conversion of yellow solution to dark blue formazan by mitochondrial dehydrogenases of living cells was quantified by measuring absorbance at 560 nm.
HCMV inhibition was measured by luciferase activity of pp28-recombinant Towne and pp28 GCV-resistant Towne strains of HCMV (72 hpi) and by plaque reduction using HCMV Towne or TB40 (10 days). Viral protein expression was measured by Western blot.

[8] = system: HCMV Towne entry into HFFs; test: HCMV entry, indirect immunofluorescence assay for pp65; assay type: cell-based; conditions: pretreatment 24 h: MLS8969 3 μM, Heparin 30 μM, GCV 5 μM; IFA 2 hpi
Experimental: HCMV entry and indirect immunofluorescence assay: MLS8969, GCV and heparin control were used to determine inhibition of HCMV entry. Compounds were diluted in serum-free media and added to HFFs seeded on chamber slides 24 h prior to infection. After infection (MOI 1 or 0.1 PFU/cell) for 2 h, cells were fixed with 100% chilled methanol, blocked for 1 h with phosphate-buffered saline (PBS), 5% serum, 0.3% Triton X-100. Cells were then incubated with mouse monoclonal anti-pp65 antibody, 1:50 (Vector Laboratories, Burlingame, CA) at 37° C. in humidified chambers for 1 h, washed three times with TBST (0.1%), incubated with rhodamine-conjugated anti-mouse IgG, 1:500 (Sigma) at 37° C. in humidified chambers for 1 h and washed with TBST (0.1%). A drop of mount oil containing DAPI (Santa Cruz Biotechnology, Santa Cruz, CA) was added to the slides before visualization with a Zeiss ZI fluorescence microscope. Images were captured at 40× magnification.

[9] = system: HCMV TB40; test: Drug combination with letermovir, plaque assay TB40, Bliss model; assay type: cell-based, human cytomegalovirus; conditions: Human betaherpesvirus 5, read-out: EC50 of Compound 1 (Letermovir)
Experimental: as §5, §6
Pattern of drug combination with GCV and letermovir: The effect of each compound alone or in combination with GCV or letermovir was tested in HCMV-infected HFFs. […] A ratio of observed fold inhibition divided by the expected fold inhibition of >1 was considered drug synergy, <1 as drug antagonism, and =1 as additive. For letermovir and its combination with each of the five compounds the EC50 was determined based on plaque assay. The combination of GCV and 2955 was also tested by plaque assay. All other combinations and Bliss coefficients were measured by pp28- luciferase.

`Nc1nc(O)c2ncn(COC(CO)CO)c2n1` [GCV, ganciclovir, reference compound] gave an EC50 [1] of 0.04 µM, an EC50 [2] of 770 ± 80 nM and an EC50 [3] of 5200 ± 400 nM. The EC50 [4] was 960 ± 100 nM, the EC50 [5] was 0.58 µM and the EC50 [6] was 1330 nM. The CC50 [7] was > 200000 nM and the “inhibition of HCMV entry (pp65 nuclear staining), in words” value [8] was “did not affect pp65 nuclear staining”.
Work on `COc1cccc(N2CCN(C3=Nc4c(F)cccc4[C@H](CC(=O)O)N3c3cc(C(F)(F)F)ccc3OC)CC2)c1` [Letermovir, letermovir, reference compound] yielded an EC50 [9] of 1.1 nM.
For Heparin, the “inhibition of HCMV entry (pp65 nuclear staining), in words” value [8] was “inhibited HCMV entry”.
